# Experimental data taken from the supplement of paper PMC9663587.
# What was measured:
# Torin2 = compound: C1=CC(=CC(=C1)N2C(=O)C=CC3=CN=C4C=CC(=CC4=C32)C5=CN=C(C=C5)N)C(F)(F)F [Torin2]
# R0-3306 = compound: C1=CC2=C(C=CC(=C2)C=C3C(=O)NC(=NCC4=CC=CS4)S3)N=C1 [R0-3306]
# AZD1775 = compound: C=CCn1c(=O)c2cnc(Nc3ccc(N4CCN(C)CC4)cc3)nc2n1-c1cccc(C(C)(C)O)n1 [AZD1775]
# [1] = compound: CC(=O)Nc1cccc(-n2c(=O)n(C3CC3)c(=O)c3c(Nc4ccc(I)cc4F)n(C)c(=O)c(C)c32)c1
# [2] = compound: CC(=O)c1c(C)c2cnc(Nc3ccc(N4CCNCC4)cn3)nc2n(C2CCCC2)c1=O
# Ipatasertib/GDC0068 = compound: CC(C)NC[C@@H](C(=O)N1CCN(c2ncnc3c2[C@H](C)C[C@H]3O)CC1)c1ccc(Cl)cc1 [Ipatasertib/GDC0068]
# BVD523 = compound: CC(C)Nc1cc(-c2c[nH]c(C(=O)N[C@H](CO)c3cccc(Cl)c3)c2)c(Cl)cn1 [BVD523]
# SHP099 = compound: CC1(CCN(CC1)C2=CN=C(C(=N2)N)C3=C(C(=CC=C3)Cl)Cl)N [SHP099]
# TGX221 = compound: CC1=CN2C(=O)C=C(N=C2C(=C1)C(C)NC3=CC=CC=C3)N4CCOCC4 [TGX221]
# [3] = compound: CCC1=CN=CN=C1N2CCN(CC2)CC3=NC4=C(N3)C=C(C=C4)C(F)(F)F
# [4] = compound: CCCCOc1c(C(=O)c2c(F)cc(C)cc2F)c[nH]c2nncc1-2
# Luminespib/NVP-AUY922 = compound: CCNC(=O)c1noc(-c2cc(C(C)C)c(O)cc2O)c1-c1ccc(CN2CCOCC2)cc1 [Luminespib/NVP-AUY922]
# [5] = compound: CCc1cnn2c(NCc3ccc[n+]([O-])c3)cc(N3CCCC[C@H]3CCO)nc12
# THZ-P1-2 = compound: CN(C)C/C=C/C(=O)NC1=CC=C(C=C1)C(=O)NC2=CC=CC(=C2)NC3=NC=NC(=C3)C4=CNC5=CC=CC=C54 [THZ-P1-2]
# THZ1 = compound: CN(C)C/C=C/C(=O)Nc1ccc(C(=O)Nc2cccc(Nc3ncc(Cl)c(-c4c[nH]c5ccccc45)n3)c2)cc1 [THZ1]
# BSJ-01-175 = compound: CN(C)C/C=C/C(=O)Nc1ccc(O[C@@H]2CCC[C@@H](Nc3ncc(Cl)c(-c4c[nH]c5ccccc45)n3)C2)cc1 [BSJ-01-175]
# senexin b = compound: CN1CCN(C(=O)c2ccc3cc(CCNc4ncnc5ccc(C#N)cc45)ccc3c2)CC1 [senexin b]
# Saracatinib/AZD0530 = compound: CN1CCN(CCOc2cc(OC3CCOCC3)c3c(Nc4c(Cl)ccc5c4OCO5)ncnc3c2)CC1 [Saracatinib/AZD0530]
# Flavopiridol = compound: CN1CC[C@H](c2c(O)cc(O)c3c(=O)cc(-c4ccccc4Cl)oc23)[C@H](O)C1 [Flavopiridol]
# AZD2014 = compound: CNC(=O)c1cccc(-c2ccc3c(N4CCOC[C@@H]4C)nc(N4CCOC[C@@H]4C)nc3n2)c1 [AZD2014]
# Rucaparib = compound: CNCc1ccc(-c2[nH]c3cc(F)cc4c3c2CCNC4=O)cc1 [Rucaparib]
# [6] = compound: CNc1nc(-c2ccc3c(N)n[nH]c3c2)cc(N2C[C@@H](C(=O)NC3CCCCC3)CC[C@H]2C)n1
# [7] = compound: CO[C@@H](C)Cn1c(=O)n(C)c2cnc3ccc(-c4cncc(C(C)(C)O)c4)cc3c21
# Cediranib/AZD2171 = compound: COc1cc2c(Oc3ccc4[nH]c(C)cc4c3F)ncnc2cc1OCCCN1CCCC1 [Cediranib/AZD2171]
# Cabozantinib = compound: COc1cc2nccc(Oc3ccc(NC(=O)C4(C(=O)Nc5ccc(F)cc5)CC4)cc3)c2cc1OC [Cabozantinib]
# Doxorubicin = compound: COc1cccc2c1C(=O)c1c(O)c3c(c(O)c1C2=O)C[C@@](O)(C(=O)CO)C[C@@H]3O[C@H]1C[C@H](N)[C@H](O)[C@H](C)O1 [Doxorubicin]
# AZD6738 = compound: C[C@@H]1COCCN1c1cc(C2([S@](C)(=N)=O)CC2)nc(-c2cc[nH]c3nccc2-3)n1 [AZD6738]
# Alpelisib/BYL719 = compound: Cc1nc(NC(=O)N2CCC[C@H]2C(N)=O)sc1-c1ccnc(C(C)(C)C(F)(F)F)c1 [Alpelisib/BYL719]
# Dasatinib = compound: Cc1nc(Nc2ncc(C(=O)Nc3c(C)cccc3Cl)s2)cc(N2CCN(CCO)CC2)n1 [Dasatinib]
# [8] = compound: Cc1nn(C)c(COc2ccc(N3CCN(S(=O)(=O)N(C)C)CC3)cc2)c1-c1cccc2c(CCCOc3cccc4ccccc34)c(C(=O)O)n(CCN3CCOCC3)c12
# AZD7762 = compound: NC(=O)Nc1cc(-c2cccc(F)c2)sc1C(=O)N[C@H]1CCCNC1 [AZD7762]
# AZD5363 = compound: NC1(C(=O)N[C@@H](CCO)c2ccc(Cl)cc2)CCN(c2nc[nH]c3nccc2-3)CC1 [AZD5363]
# Buparlisib/NVP-BKM120 = compound: Nc1cc(C(F)(F)F)c(-c2cc(N3CCOCC3)nc(N3CCOCC3)n2)cn1 [Buparlisib/NVP-BKM120]
# Vorinostat = compound: O=C(CCCCCCC(=O)Nc1ccccc1)NO [Vorinostat]
# Olaparib/AZD2281 = compound: O=C(c1cc(Cc2n[nH]c(=O)c3ccccc23)ccc1F)N1CCN(C(=O)C2CC2)CC1 [Olaparib/AZD2281]
# 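Further: breast cancer and non-malignant breast epithelial cell lines, Deep Dye Drop or Dye Drop imaging, nine half-log doses, GR normalized to time-zero plates and DMSO-only controls.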
Cell Line,"GR50, 72 h (Torin2) [µM]","GR50, 72 h (R0-3306) [µM]","GR50, 72 h (AZD1775) [µM]","GR50, 72 h [1] [µM]","GR50, 72 h [2] [µM]","GR50, 72 h (Ipatasertib/GDC0068) [µM]","GR50, 72 h (BVD523) [µM]","GR50, 72 h (SHP099) [µM]","GR50, 72 h (TGX221) [µM]","GR50, 72 h [3] [µM]","GR50, 72 h [4] [µM]","GR50, 72 h (Luminespib/NVP-AUY922) [µM]","GR50, 72 h [5] [µM]","GR50, 72 h (THZ-P1-2) [µM]","GR50, 72 h (THZ1) [µM]","GR50, 72 h (BSJ-01-175) [µM]","GR50, 72 h (senexin b) [µM]","GR50, 72 h (Saracatinib/AZD0530) [µM]","GR50, 72 h (Flavopiridol) [µM]","GR50, 72 h (AZD2014) [µM]","GR50, 72 h (Rucaparib) [µM]","GR50, 72 h [6] [µM]","GR50, 72 h [7] [µM]","GR50, 72 h (Cediranib/AZD2171) [µM]","GR50, 72 h (Cabozantinib) [µM]","GR50, 72 h (Doxorubicin) [µM]","GR50, 72 h (AZD6738) [µM]","GR50, 72 h (Alpelisib/BYL719) [µM]","GR50, 72 h (Dasatinib) [µM]","GR50, 72 h [8] [µM]","GR50, 72 h (AZD7762) [µM]","GR50, 72 h (AZD5363) [µM]","GR50, 72 h (Buparlisib/NVP-BKM120) [µM]","GR50, 72 h (Vorinostat) [µM]","GR50, 72 h (Olaparib/AZD2281) [µM]"
MCF7,0.00456,6.26,0.0111,> 1,0.075,1.3,3.8,> 10,> 10,> 10,0.00767,0.00871,0.00831,3.65,0.0224,0.006,> 10,0.577,0.0847,< 0.001,> 10,3.23,< 0.001,5.7,4.82,0.0161,3.05,0.585,0.0694,> 10,0.0414,> 10,0.187,0.542,> 10
HCC1143,0.0447,1.66,0.703,0.00883,0.277,> 10,1.74,> 10,> 10,> 10,0.00177,0.00391,0.0151,5.01,0.0265,0.0506,> 10,3.03,0.17,0.413,> 10,> 10,0.286,3.73,> 10,0.00927,5.13,9.88,0.139,> 10,0.0557,> 10,0.725,0.91,8.83
HTERT_HME1,0.0253,4.01,0.302,0.00573,0.222,> 10,0.213,> 10,> 10,5.4,0.0012,0.00855,0.0121,4.1,0.00442,0.00582,> 10,7.23,0.112,0.0169,> 10,> 10,0.00274,7.57,3.24,0.00471,5.78,6.04,0.183,0.899,0.259,> 10,1.15,3.02,> 10
EFM19,0.0114,6.14,3.9,> 1,0.525,1.45,> 10,> 10,> 10,> 10,0.119,0.021,0.0283,6.33,0.383,1.51,> 10,3.5,0.284,0.00131,> 10,2.18,0.00381,> 10,> 10,0.0513,> 10,0.282,0.0184,> 10,1.48,1.63,0.706,2.66,> 10
HCC1937,0.0934,5.17,0.00892,> 1,> 3.16,> 10,> 10,> 10,> 10,> 10,< 0.001,0.0114,0.0218,4.05,0.0648,0.302,4.95,> 10,0.168,0.0304,> 10,> 10,0.139,8.4,> 10,0.0128,9.08,> 10,0.113,> 10,0.17,> 10,1.45,1.91,> 10
SUM52PE,0.0154,5.05,4.37,> 1,0.564,6.8,5.04,> 10,> 10,8,0.112,0.00584,0.0196,6.06,0.0156,0.0947,> 10,9.64,0.234,0.0163,> 10,8.3,0.0079,0.17,0.736,0.049,5.11,2.74,0.238,8.59,0.0752,3.52,0.738,4.26,> 10
EVSAT,0.015,5.54,3.96,> 1,> 3.16,0.256,> 10,> 10,1.39,> 10,1.45,0.00716,0.0263,> 10,0.0571,0.146,> 10,2.69,0.369,0.00617,> 10,1.77,0.00155,9.9,> 10,0.00911,> 10,> 10,0.166,> 10,1.42,0.0128,1.04,2.5,> 10
